Reference: US12410141B2, “Anti-cancer spirocyclic-guanidine compounds and uses thereof” (The Johns Hopkins University, priority 2020, dated 2025)
“And” between values parts separate entries of the source, which are not always exact repeats. Identical values can stand only once.

Key:
[1] = Solubility compared with RA190; format: physicochemical; settings: compared with prototypic RPN13 inhibitor RA190
HepG2 = assay: MTT cytotoxicity assay, HepG2; format: cell-based; settings: HepG2, liver, 72 hr, read-out: IC50, cell killing
Experimental: (§1) All cell lines were obtained from the American Type Culture Collection (ATCC) and cultured in the specified medium supplemented with 10% fetal bovine serum, 100 IU/mL penicillin, and 100 μg/mL streptomycin at 37° C. in a humidified 5% CO2/95% air incubator. To assess drug cytotoxicity cells were seeded at 2,500 cells/well (10,000 cells/well for MM lines and primary cells) in 100 μL medium in 96-well plate. […]
(§2) It was examined whether the RPN13 inhibitor, RA475, was cytotoxic for cancer cell lines using the MTT assay.

[2] = test system: HCC1806 cells stably expressing 4UbFL; assay: 4UbFL proteasome reporter, HCC1806 cells; format: cell-based; settings: 4 hr treatment, IVIS imager
Experimental: Data are presented as IVIS image (FIG. 8A) and bioluminescence units (FIG. 8B).
4T1 and HCC1806 cells were transfected with 4UbFL plasmid using TransIT2020 transfection reagent for a period of 48 hrs and cells were selected using G418 antibiotic from single colonies. Selected cells were seeded in a 24-well plate (50,000/well) and incubated for 18 h at 37° C. in an incubator. Next, cells were treated with compounds for the period of 4 hr and Luciferin was added (50 uL each well, 7.8 mg/mL) and imaged through an IVIS200 instrument and plotted as a bioluminescent value or fold increase to DMSO control.

[3] = test system: human foreskin fibroblasts (HFF); assay: MTT cytotoxicity assay, human foreskin fibroblasts; format: cell-based; settings: non-transformed human foreskin fibroblasts, 72 hr, highest concentration tested 2.5 μM, read-out: IC50, cell killing
Experimental: as §1, §2

HeLa = assay: MTT cytotoxicity assay, HeLa; format: cell-based; settings: cervical, 72 hr, read-out: IC50, cell killing
Experimental: as §1, §2

cancer cells = assay: MTT cytotoxicity assay, cancer cell lines overall; format: cell-based; settings: all solid cancer-derived cell lines tested (Table 1)
Experimental: All cell lines were obtained from the American Type Culture Collection (ATCC) and cultured in the specified medium supplemented with 10% fetal bovine serum, 100 IU/mL penicillin, and 100 μg/mL streptomycin at 37° C. in a humidified 5% CO2/95% air incubator. To assess drug cytotoxicity cells were seeded at 2,500 cells/well (10,000 cells/well for MM lines and primary cells) in 100 μL medium in 96-well plate. The cells were treated with compounds for 48 h, and cells were incubated according to the manufacturer's protocol with the Thiazolyl Blue Tetrazolium Bromide (Sigma, M2128) and A570 measured using a Benchmark Plus microplate spectrophotometer (BIO-RAD).
as §2

ES2 = assay: Flow cytometry analysis of cell death, ES2; format: cell-based; settings: 1 μM or 2 μM, 16 hr
Experimental: 10^5 cells were re-suspended in binding buffer, 5 μL of Annexin V-PE (Apoptosis Detection Kit I (BD Pharmingen) and 5 μL of 7-AAD were then added into the cells, which were then incubated at room temperature for 15 minutes and analyzed by flow cytometry on a FACSCalibur using CellQuest software (Becton Dickinson).
Two ovarian cancer cell lines, ES2 and OVCAR3, were treated with 1 μM or 2 μM RA475 and 16 hr later the cells were harvested and stained with 7-AAD and Annexin V. 7-AAD is a DNA dye that can enter dying cells and Annexin V is commonly used to detect apoptotic cells by its ability to bind to phosphatidylserine, an early marker of apoptosis when it is exposed on the outer leaflet of the plasma membrane.

4T1 = assay: MTT cytotoxicity assay, 4T1; format: cell-based; settings: 4T1, breast (TNBC), 72 hr, read-out: IC50, cell killing
Experimental: as §1, §2

OVCAR3 = assay: MTT cytotoxicity assay, OVCAR3; format: cell-based; settings: OVCAR3, ovarian, 72 hr, read-out: IC50, cell killing
Experimental: as §1, §2

MDA-MB-468 = assay: MTT cytotoxicity assay, MDA-MB-468; format: cell-based; settings: MDA-MB-468, breast, 72 hr, read-out: IC50, cell killing
Experimental: as §1, §2

MC38 = assay: MTT cytotoxicity assay, MC38; format: cell-based; settings: MC38, colon, 72 hr, read-out: IC50, cell killing
Experimental: as §1, §2

HCC1806 = assay: MTT cytotoxicity assay, HCC1806; format: cell-based; settings: HCC1806, breast, 72 hr, read-out: IC50, cell killing
Experimental: as §1, §2

[4] = test system: ID8-Vegf Defb29 cells stably expressing firefly luciferase in C57BL6 mice; assay: ID8-Luc syngeneic ovarian tumor model; format: in vivo, mouse; settings: female C57BL6 mice, 40 mg/Kg every 3 days, i.p.
Experimental: Whereas vehicle treatment (n=7) increased tumor burden and ascites formation.
Briefly, female C57BL6 mice were injected (i.p.) with ID8-Vegf Defb29 cells stably expressing firefly luciferase (0.5×10^6 cells) in PBS (100 uL). After 72 hrs, mice were imaged for their basal luminescence levels using an IVIS200 imager. Mice with visible luminescence were randomized into two groups and treated with Vehicle (25% b-hydroxy propylcyclodextrin in water, 200 uL, every 3 days, i.p.) and RA475 (40 mg/Kg, every 3 days, i.p.). Mice were imaged every week to measure bioluminescence expressed by tumor after administration of luciferin (100 uL, 7.8 mg/mL).

DLD-1 = assay: MTT cytotoxicity assay, DLD-1; format: cell-based; settings: DLD-1, colon, 72 hr, read-out: IC50, cell killing
Experimental: as §1, §2

SKOV3 = assay: MTT cytotoxicity assay, SKOV3; format: cell-based; settings: SKOV3, ovarian, 72 hr, read-out: IC50, cell killing
Experimental: as §1, §2

Br23C = assay: MTT cytotoxicity assay, Br23C; format: cell-based; settings: glioblastoma multiforme, 72 hr, read-out: IC50, cell killing
Experimental: as §1, §2

## Cl.Cl.N#Cc1ccc(/C=C2/C(=O)/C(=C/c3ccc(C#N)cc3)C23CCN(C(=N)N)CC3)cc1 [RA475]
[1]
  solubility relative to RA190: better solubility
HepG2
  IC50: 0.241 µM
[2]
  bioluminescence of 4UbFL reporter: dose-dependent increase
[3]
  IC50: > 2.5 µM
HeLa
  IC50: 0.213 µM
Cancer cells
  IC50 across cancer cell lines: Sub micromolar
ES2
  7-AAD and Annexin V double positive cells: dose-dependent induction
4T1
  IC50: 0.261 µM
OVCAR3
  IC50: 0.19 µM
MDA-MB-468
  IC50: 0.292 µM
MC38
  IC50: 0.359 µM
HCC1806
  IC50: 0.113 µM
[4]
  body weight: no weight loss
  effect on tumor (bioluminescence): regressed tumor
  survival: enhanced survival
DLD-1
  IC50: 0.491 µM
SKOV3
  IC50: 0.3 µM and 0.19 µM
Br23C
  IC50: 0.75 µM
